Results on one compound are retold here after patent publication US9782385B2, “Artificial tears solution combination” (National Health Research Institutes, priority 2015, dated 2017).

The subject of assay [1] is inflammatory cytokines (IL-1β, IL-6, IL-8, and TNF-α). Description: Gene expression experiment for inflammatory cytokines (Q-PCR) in LPS-induced HCEC. The assay is classed as cell-based, Human. The conditions noted are these: LPS 500 ng/ml induced HCEC, 2 hours with test material; compared with the other groups. On the procedure: In this experiment, firstly, cultivate the Human Corneal Epithelial Cells (HCEC) for 48 hours, then utilize Lipopolysaccharide (LPS) at concentration of 500 ng/ml to induce HCEC for 3 hours, to make it to produce inflammatory reaction. Afterwards, add in the compound of EGCG and HA to cultivate with HCEC for 2 hours. The Gene Expression Experiment to evaluate Inflammatory cytokines was conducted for 3 days, and the samples for this experiment were obtained by collecting these cells on the third day. Firstly, utilize Trizol reagent to extract Ribonucleic Acid (RNA) of these cells, and then utilize the High-Capacity cDNA Reverse Transcription Kits made by manufacturer ABi to perform Reverse Transcription […] (RT-PCR), to synthesis the complementary deoxyribonucleic acid (cDNA). Subsequently, utilize the TagManR Fast Universal Master Mix (2X) made by manufacturer ABi, to perform Quantitative Real-Time PCR (Q-PCR) on the inflammatory cytokines (IL-1β, IL-6, IL-8, and TNF-α), to detect the gene expression of the inflammation cytokines (IL-1β, IL-6, IL-8, and TNF-α).

The test system of assay [2] is inflammation cytokines (IL-1β, IL-6, IL-8, and TNF-α). Kind of assay: Inflammation cytokines protein expression experiment (ELISA of cornea protein). The class given is in vivo. Particulars: rabbit, BAC-induced dry eye, treatment twice a day for 2 weeks. From the text:
In this experiment, firstly, a Benzalkonium Chloride (BAC) is dipped onto the eyes of a rabbit 3 times a day for 3 weeks, to induce the rabbit eyes to produce inflammation, and to cause it to have symptoms of moderate dry eye syndrome. Then, utilize various combined compounds of artificial tear solution, HA, and EGCG to proceed with treatments, twice a day for 2 weeks. Then, extract the protein from the rabbit's cornea to perform Enzyme-Linked Immunosorbent Assay (ELISA), to detect the protein expression of the inflammation cytokines (IL-1β, IL-6, IL-8, and TNF-α), and to observe and determine whether the inflammation cytokines were reduced, through treatment of various compounds of artificial tear solution, HA, and EGCG

For `O=C(O[C@@H]1Cc2c(O)cc(O)cc2O[C@@H]1c1cc(O)c(O)c(O)c1)c1cc(O)c(O)c(O)c1` [EGCG, Epigallocatechin gallate], in assay [1], the “Relative Transcription Ratios of the 4 inflammation factors (IL-1β, IL-6, IL-8, TNF-α)” value was “does have anti-inflammatory effect”. Also, the “concentration of inflammatory cytokines (IL-1β, IL-6, IL-8, and TNF-α) in cornea” value in assay [2] is “has the anti-inflammatory effect”.
